Assay results reported in patent publication US20240150321A1, “PYRAZOLYLSULFONAMIDE COMPOUNDS AND THEIR USE IN THERAPY” (HOTSPOT THERAPEUTICS, INC., priority 2022, published 2024).
pIC50: −log10 of the molar value.

Experiments:
Avi-tagged FL MALT-1 = Avi-tagged FL MALT-1 (Homo sapiens (Human), UniProt Q9UDY8); assay: MALT-1 Fluorogenic Peptide Cleavage Assay (MALT1 inhibition assay); type: biochemical; details: Ac-LRSR-AMC peptide substrate, 30 min pre-incubation, 90 min reaction at room temperature
How it was run: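 Cleavage of Ac-LRSR-AMC, read as fluorescence at 342/441 nm after 90 min at room temperature, with substrate working stocks of 50 μM (Km) or 280 μM (10×Km). Enzyme, Avi-tagged full-length MALT-1 (40 nM stock), was first pre-incubated 30 min with compound in citrate/HEPES pH 6.89 buffer with TCEP, EDTA, CHAPS and 2% DMSO; IC50 fitted from normalised % inhibition.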

[1] = system: NF-kB reporter in Jurkat cells; assay: NF-kB reporter assay in Jurkat cells stimulated with aCD3/aCD28/PMA; type: cell-based; details: Homo sapiens; Jurkat cells, 1 hr compound pre-incubation, aCD3/aCD28/PMA stimulation 4 hr, One-Glo readout; read-out: NF-kB Reporter Assay IC50
How it was run: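 Luminescence (One-Glo) from the NF-kB reporter yielded IC50 values. Stimulation lasted 4 h at 37° C with aCD3, aCD28 and PMA (final 5, 5 and 0.03 […]), after 1 h compound pre-exposure of 25,000 Jurkat cells per well in serum-free RPMI.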

Chain of Avi-tagged FL MALT-1 (Q9UDY8 whole entry): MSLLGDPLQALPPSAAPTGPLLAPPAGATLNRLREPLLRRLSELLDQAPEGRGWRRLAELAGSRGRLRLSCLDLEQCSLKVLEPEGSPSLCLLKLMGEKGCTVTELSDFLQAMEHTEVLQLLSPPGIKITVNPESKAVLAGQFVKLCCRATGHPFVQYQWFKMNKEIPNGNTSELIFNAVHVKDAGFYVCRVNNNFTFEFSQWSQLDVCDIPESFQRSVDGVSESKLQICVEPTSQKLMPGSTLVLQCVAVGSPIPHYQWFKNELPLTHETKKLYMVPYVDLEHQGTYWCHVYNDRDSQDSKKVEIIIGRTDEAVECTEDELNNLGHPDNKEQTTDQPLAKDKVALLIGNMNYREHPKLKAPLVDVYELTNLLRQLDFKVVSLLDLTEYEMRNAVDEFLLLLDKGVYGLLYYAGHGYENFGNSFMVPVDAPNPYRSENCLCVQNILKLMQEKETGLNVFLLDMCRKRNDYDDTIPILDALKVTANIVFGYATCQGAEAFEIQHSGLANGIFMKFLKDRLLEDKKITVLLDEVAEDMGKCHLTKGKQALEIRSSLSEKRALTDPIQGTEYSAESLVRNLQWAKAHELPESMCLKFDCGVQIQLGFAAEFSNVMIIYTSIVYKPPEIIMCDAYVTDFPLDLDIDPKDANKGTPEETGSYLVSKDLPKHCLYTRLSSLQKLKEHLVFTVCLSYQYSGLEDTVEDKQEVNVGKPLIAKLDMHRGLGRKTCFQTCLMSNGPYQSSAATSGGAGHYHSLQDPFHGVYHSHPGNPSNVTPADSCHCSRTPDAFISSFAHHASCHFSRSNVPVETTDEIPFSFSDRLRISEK

pIC50 (Avi-tagged FL MALT-1)	pIC50 [1]	SMILES
< 5.60	> 6.40	COc1ccc2cnn(C)c2c1NS(=O)(=O)c1cnn(-c2cc(N3CC[C@H](C)C3)ccn2)c1 [Compound I-402]
< 5.60	> 6.40	COc1ccc2cnn(C)c2c1NS(=O)(=O)c1cnn(-c2cc(N3CC[C@@H](C)C3)ccn2)c1 [Compound I-403]
< 5.60	> 6.40	COc1ncc2cnn(C)c2c1NS(=O)(=O)c1cnn(-c2cc(N3CC4CC4C3)ccn2)c1 (stereo not shown) [Compound I-405]
< 5.60	> 6.40	COc1ncc2cnn(C)c2c1NS(=O)(=O)c1cnn(-c2cc(N3CCC(C)CC3)ccn2)c1 [Compound I-407]
< 5.60	> 6.40	COc1ncc2cnn(C)c2c1NS(=O)(=O)c1cnn(-c2cc(N3CCCCCC3)ccn2)c1 [Compound I-408]
< 5.60	> 6.40	Cn1ncc2cccc(NS(=O)(=O)c3cnn(-c4cc(N5CC6CC5C6)ccn4)c3)c21 [Compound I-409, 1-(4-{2-azabicyclo[2.1.1]hexan-2-yl}pyridin-2-yl)-N-(1-methylindazol-7-yl)pyrazole-4-sulfonamide]
< 5.60	> 6.40	Cn1ncc2cccc(NS(=O)(=O)c3cnn(-c4cc(N5CCC6(CC6)C5)ccn4)c3)c21 [Compound I-410, 1-(4-{5-azaspiro[2.4]heptan-5-yl}pyridin-2-yl)-N-(1-methylindazol-7-yl)pyrazole-4-sulfonamide]
≥ 6.40	> 6.40	[2H]C([2H])([2H])n1ncc2cnc(OC)c(NS(=O)(=O)c3cnn(-c4cc(C(C)(F)F)ccn4)c3)c21 [Compound I-411, 1-(4-(1,1-Difluoroethyl)Pyridin-2-yl)-N-(6-Methoxy-1-(Methyl-D3)-1H-Pyrazolo[4,3-C]Pyridin-7-yl)-1H-Pyrazole-4-Sulfonamide]
≥ 6.40	> 6.40	[2H]C([2H])([2H])n1ncc2ccc(OC)c(NS(=O)(=O)c3cnn(-c4cc(C(C)(F)F)ccn4)c3)c21 [Compound I-412, 1-(4-(1,1-Difluoroethyl)Pyridin-2-yl)-N-(6-Methoxy-1-(Methyl-D3)-1H-Indazol-7-yl)-1H-Pyrazole-4-Sulfonamide]
6.00 to 6.40	> 6.40	COc1ccc2cnn(C)c2c1NS(=O)(=O)c1cnn(-c2cc(C3(F)CC(C)C3)ccn2)c1 (stereo not shown) [Compound I-413, 1-(4-(1-fluoro-3-methylcyclobutyl)pyridin-2-yl)-N-(6-methoxy-1-methyl-1H-indazol-7-yl)-1H-pyrazole-4-sulfonamide]
< 5.60	< 5.60	CN1CC[C@@H](n2cc(S(=O)(=O)Nc3cccc4cnn(C)c34)cn2)CC1=O [Compound I-414]
< 5.60	< 5.60	CN1CC[C@H](n2cc(S(=O)(=O)Nc3cccc4cnn(C)c34)cn2)CC1=O [Compound I-415]
< 5.60	5.60 to 6.00	COc1ncc2cnn(C)c2c1NS(=O)(=O)c1cnn(-c2cc(N3CCOCC3)ccn2)c1 [Compound I-416]
< 5.60	> 6.40	COc1ccc2cnn(C)c2c1NS(=O)(=O)c1cnn(-c2cc(N3CC4CC4C3)ccn2)c1 (stereo not shown) [Compound I-417]
< 5.60	> 6.40	COc1ccc2cnn(C)c2c1NS(=O)(=O)c1cnn(-c2cc(N3CCC(C)CC3)ccn2)c1 [Compound I-418]
< 5.60	> 6.40	COc1ncc2cnn(C)c2c1NS(=O)(=O)c1cnn(-c2cc(N3CC[C@H](C)C3)ccn2)c1 [Compound I-419]
< 5.60	> 6.40	COc1ncc2cnn(C)c2c1NS(=O)(=O)c1cnn(-c2cc(N3CC[C@@H](C)C3)ccn2)c1 [Compound I-420]
< 5.60	> 6.40	Cn1ncc2cccc(NS(=O)(=O)c3cnn(-c4cc(N5CCC(C)(C)C5)ccn4)c3)c21 [Compound I-421, 1-(4-(3,3-dimethylpyrrolidin-1-yl)pyridin-2-yl)-N-(1-methyl-1H-indazol-7-yl)-1H-pyrazole-4-sulfonamide]
< 5.60	> 6.40	COc1ccc2cnn(C)c2c1NS(=O)(=O)c1cnn(-c2cc(N3CC[C@H](F)C3)ccn2)c1 [Compound I-422]
< 5.60	> 6.40	COc1ccc2cnn(C)c2c1NS(=O)(=O)c1cnn(-c2cc(N3CC[C@@H](F)C3)ccn2)c1 [Compound I-423]

pIC50 (Avi-tagged FL MALT-1)	pIC50 [1]	SMILES
< 5.60	> 6.40	COc1ncc2cnn(C)c2c1NS(=O)(=O)c1cnn(-c2cc(N3CCC4(CC4)C3)ccn2)c1 [Compound I-424]
< 5.60	> 6.40	COc1ncc2cnn(C)c2c1NS(=O)(=O)c1cnn(-c2cc(N3CCC(C)(C)C3)ccn2)c1 [Compound I-425]
< 5.60	> 6.40	COc1ncc2cnn(C)c2c1NS(=O)(=O)c1cnn(-c2cc(N3CC[C@H](F)C3)ccn2)c1 [Compound I-426]
< 5.60	6.00 to 6.40	COc1ncc2cnn(C)c2c1NS(=O)(=O)c1cnn(-c2cc(N3CC[C@@H](F)C3)ccn2)c1 [Compound I-427]
6.00 to 6.40	> 6.40	COc1ncc2cnn(C)c2c1NS(=O)(=O)c1cnn(-c2cc(N3CCC(F)(F)C3)ccn2)c1 [Compound I-428, 1-(4-(3,3-difluoropyrrolidin-1-yl)pyridin-2-yl)-N-(6-methoxy-1-methyl-1H-pyrazolo[4,3-c]pyridin-7-yl)-1H-pyrazole-4-sulfonamide]
< 5.60	> 6.40	Cn1ncc2cccc(NS(=O)(=O)c3cnn(-c4cc(N5CC[C@H](F)C5)ccn4)c3)c21 [Compound I-429, 1-{4-[(3S)-3-fluoropyrrolidin-1-yl]pyridin-2-yl}-N-(1-methylindazol-7-yl) pyrazole-4-sulfonamide]
< 5.60	> 6.40	Cn1ncc2cccc(NS(=O)(=O)c3cnn(-c4cc(N5CC[C@@H](F)C5)ccn4)c3)c21 [Compound I-430, 1-{4-[(3R)-3-fluoropyrrolidin-1-yl]pyridin-2-yl}-N-(1-methylindazol-7-yl)pyrazole-4-sulfonamide]
< 5.60	> 6.40	Cn1ncc2cccc(NS(=O)(=O)c3cnn(-c4cc(N5CCC(F)(F)C5)ccn4)c3)c21 [Compound I-431, 1-[4-(3,3-difluoropyrrolidin-1-yl)pyridin-2-yl]-N-(1-methylindazol-7-yl)pyrazole-4-sulfonamide]
6.00 to 6.40	> 6.40	COc1ccc2cnn(C)c2c1NS(=O)(=O)c1cnn(-c2cc(N3CC4CC3C4)ccn2)c1 [Compound I-432, 1-(4-(2-azabicyclo[2.1.1]hexan-2-yl)pyridin-2-yl)-N-(6-methoxy-1-methyl-1H-indazol-7-yl)-1H-pyrazole-4-sulfonamide]
< 5.60	> 6.40	COc1ccc2cnn(C)c2c1NS(=O)(=O)c1cnn(-c2cc(N3CCC4(CC4)C3)ccn2)c1 [Compound I-433]
< 5.60	> 6.40	COc1ccc2cnn(C)c2c1NS(=O)(=O)c1cnn(-c2cc(N3CCC(C)(C)C3)ccn2)c1 [Compound I-434]
< 5.60	> 6.40	COc1ccc2cnn(C)c2c1NS(=O)(=O)c1cnn(-c2cc(N3CCC(F)(F)C3)ccn2)c1 [Compound I-435, 1-(4-(3,3-difluoropyrrolidin-1-yl)pyridin-2-yl)-N-(6-methoxy-1-methyl-1H-indazol-7-yl)-1H-pyrazole-4-sulfonamide]
5.60 to 6.00	> 6.40	COc1ncc2cnn(C)c2c1NS(=O)(=O)c1cnn(-c2cc(N3CC4CC3C4)ccn2)c1 [Compound I-436]
< 5.60	> 6.40	CN(C)c1ccnc(-n2cc(S(=O)(=O)Nc3cccc4cnn(C)c34)cn2)c1 [Compound I-437, 1-[4-(dimethylamino)pyridin-2-yl]-N-(1-methylindazol-7-yl)pyrazole-4-sulfonamide]
< 5.60	> 6.40	Cn1ncc2cccc(NS(=O)(=O)c3cnn(-c4cc(N5CC(F)C5)ccn4)c3)c21 [Compound I-438, 1-[4-(3-fluoroazetidin-1-yl)pyridin-2-yl]-N-(1-methylindazol-7-yl)pyrazole-4-sulfonamide]
< 5.60	> 6.40	Cn1ncc2cccc(NS(=O)(=O)c3cnn(-c4cc(N5CC(F)(F)C5)ccn4)c3)c21 [Compound I-439, 1-[4-(3,3-difluoroazetidin-1-yl)pyridin-2-yl]-N-(1-methylindazol-7-yl) pyrazole-4-sulfonamide]
< 5.60	> 6.40	Cn1ncc2cccc(NS(=O)(=O)c3cnn(-c4cc(N5CC(C)(F)C5)ccn4)c3)c21 [Compound I-440, 1-[4-(3-fluoro-3-methylazetidin-1-yl)pyridin-2-yl]-N-(1-methylindazol-7-yl)pyrazole-4-sulfonamide]
< 5.60	> 6.40	COC1CN(c2ccnc(-n3cc(S(=O)(=O)Nc4cccc5cnn(C)c45)cn3)c2)C1 [Compound I-441, 1-(4-(3-methoxyazetidin-1-yl)pyridin-2-yl)-N-(1-methyl-1H-indazol-7-yl)-1H-pyrazole-4-sulfonamide]
5.60 to 6.00	> 6.40	COc1ccc2cnn(C)c2c1NS(=O)(=O)c1cnn(-c2cc(N3CC(F)C3)ccn2)c1 [Compound I-442]

SMILES	pIC50 (Avi-tagged FL MALT-1)	pIC50 [1]
COc1ccc2cnn(C)c2c1NS(=O)(=O)c1cnn(-c2cc(N3CC4CC(C4)C3)ccn2)c1 [Compound I-404]	< 5.60	> 6.40
COc1ncc2cnn(C)c2c1NS(=O)(=O)c1cnn(-c2cc(N3CC4CC(C4)C3)ccn2)c1 [Compound I-406]	< 5.60	> 6.40
